Series [1] has as its target Adenosine receptor A3 (Mus musculus, UniProt Q61618). The series can be described thus: Displacement of [125I]I-AB-MECA from recombinant mouse adenosine A3 receptor expressed in HEK293 cell membranes.
A further series is filed under the species Homo sapiens. As to the kind of experiment: Selectivity ratio of Ki for displacement of [125I]I-AB-MECA from recombinant mouse adenosine A3 receptor expressed in HEK293 cell membranes to Ki for displacement of [125I]I-AB-MECA from recombinant human adenosine A3 receptor. On the technique in general: Displacement assays read how much labelled ligand stays bound in the presence of the test substance.

The target in series [2] is T1, Adenosine receptor A1 (Homo sapiens) (UniProt P30542).
T1 sequence (whole entry): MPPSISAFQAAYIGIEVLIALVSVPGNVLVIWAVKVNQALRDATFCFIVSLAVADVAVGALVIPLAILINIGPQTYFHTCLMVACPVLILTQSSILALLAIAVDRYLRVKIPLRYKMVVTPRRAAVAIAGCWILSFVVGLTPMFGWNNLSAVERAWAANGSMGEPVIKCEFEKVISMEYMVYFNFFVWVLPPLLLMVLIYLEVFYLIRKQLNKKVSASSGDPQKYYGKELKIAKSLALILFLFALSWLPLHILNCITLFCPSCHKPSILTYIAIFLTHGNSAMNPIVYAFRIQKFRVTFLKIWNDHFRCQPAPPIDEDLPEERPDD
The series can be described thus: Displacement of [3H]DPCPX from recombinant human A1 receptor expressed in CHO cell membranes at 10 uM.

The target of series [3] is Adenosine receptor A1 (Mus musculus) (UniProt Q60612). As to the kind of experiment: Displacement of [3H]DPCPX from mouse A1 receptor at 10 uM.
Sequence of Adenosine receptor A1 (Mus musculus) (Q60612 whole entry): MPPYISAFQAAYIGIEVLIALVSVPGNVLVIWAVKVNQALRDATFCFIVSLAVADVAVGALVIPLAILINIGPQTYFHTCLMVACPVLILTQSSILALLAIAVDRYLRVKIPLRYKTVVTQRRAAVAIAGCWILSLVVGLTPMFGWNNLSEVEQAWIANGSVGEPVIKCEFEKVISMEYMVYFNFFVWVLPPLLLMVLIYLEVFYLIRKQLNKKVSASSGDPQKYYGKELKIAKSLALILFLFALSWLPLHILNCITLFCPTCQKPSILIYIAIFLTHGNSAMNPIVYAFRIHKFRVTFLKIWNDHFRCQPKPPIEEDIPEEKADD
In series [4] the target is T2, Adenosine receptor A3 (Homo sapiens, UniProt P0DMS8).
T2 sequence (P0DMS8 whole entry): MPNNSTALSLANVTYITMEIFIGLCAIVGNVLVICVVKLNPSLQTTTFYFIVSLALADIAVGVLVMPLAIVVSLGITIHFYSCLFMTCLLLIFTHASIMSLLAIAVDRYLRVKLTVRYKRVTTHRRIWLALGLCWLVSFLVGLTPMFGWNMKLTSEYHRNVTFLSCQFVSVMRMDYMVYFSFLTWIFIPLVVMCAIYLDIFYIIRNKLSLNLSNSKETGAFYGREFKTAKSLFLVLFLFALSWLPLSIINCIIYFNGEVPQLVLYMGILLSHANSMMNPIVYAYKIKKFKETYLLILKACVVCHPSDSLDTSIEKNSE
The series can be described thus: Displacement of [125I]I-AB-MECA from recombinant human adenosine A3 receptor expressed in CHO cell membranes.

For series [5], the target named is Adenosine receptor A2a (Mus musculus, UniProt Q60613). The series can be described thus: Displacement of [3H]ZM241385 from mouse A2A receptor at 10 uM. As to conditions: probe [3H]ZM241385.
Sequence of Adenosine receptor A2a (Mus musculus, UniProt Q60613) (Q60613 whole entry): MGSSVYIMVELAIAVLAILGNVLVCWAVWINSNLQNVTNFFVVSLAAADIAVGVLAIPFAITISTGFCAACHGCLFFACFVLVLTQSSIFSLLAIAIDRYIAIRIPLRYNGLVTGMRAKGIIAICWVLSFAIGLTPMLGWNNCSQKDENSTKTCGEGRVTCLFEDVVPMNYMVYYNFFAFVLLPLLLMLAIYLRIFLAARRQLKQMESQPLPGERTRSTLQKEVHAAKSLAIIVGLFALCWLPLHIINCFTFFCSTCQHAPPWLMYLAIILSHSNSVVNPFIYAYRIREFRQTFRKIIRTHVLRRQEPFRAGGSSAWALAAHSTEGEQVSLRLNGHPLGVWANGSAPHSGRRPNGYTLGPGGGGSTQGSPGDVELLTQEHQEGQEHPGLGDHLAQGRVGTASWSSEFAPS
The target in series [6] is Sodium-dependent noradrenaline transporter (Homo sapiens, UniProt P23975). As to the kind of experiment: Displacement of [3H]Nisoxetine from human NET expressed in HEK cells by radioligand binding assay. It counts as cell-based.
Sequence of Sodium-dependent noradrenaline transporter (P23975 whole entry): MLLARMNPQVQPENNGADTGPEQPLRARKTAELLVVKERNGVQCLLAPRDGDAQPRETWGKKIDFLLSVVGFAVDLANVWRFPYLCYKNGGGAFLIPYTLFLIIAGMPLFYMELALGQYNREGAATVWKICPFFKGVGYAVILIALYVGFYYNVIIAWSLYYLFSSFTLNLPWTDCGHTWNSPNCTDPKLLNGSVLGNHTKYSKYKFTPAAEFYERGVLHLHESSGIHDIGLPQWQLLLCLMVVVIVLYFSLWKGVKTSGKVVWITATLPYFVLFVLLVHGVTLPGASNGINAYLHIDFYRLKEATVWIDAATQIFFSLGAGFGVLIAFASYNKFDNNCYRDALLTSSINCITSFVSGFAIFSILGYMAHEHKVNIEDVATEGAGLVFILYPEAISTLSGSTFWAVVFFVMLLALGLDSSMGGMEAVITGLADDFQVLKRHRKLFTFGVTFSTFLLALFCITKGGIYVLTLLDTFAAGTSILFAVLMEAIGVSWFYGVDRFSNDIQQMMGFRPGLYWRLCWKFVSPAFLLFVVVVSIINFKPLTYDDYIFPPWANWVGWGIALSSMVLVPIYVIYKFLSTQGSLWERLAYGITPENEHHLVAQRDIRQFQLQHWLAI
Series [7] concerns the target Sigma intracellular receptor 2 (Homo sapiens, UniProt Q5BJF2). As to the kind of experiment: Displacement of [3H]-DTG from human sigma 2 receptor.
Series [8] deals with T3, Adenosine receptor A2a (Homo sapiens, UniProt P29274). As to the kind of experiment: Displacement of [3H]ZM241385 from human A2A receptor expressed in HEK293 cell membranes at 10 uM. As to conditions: HEK293 cell membranes expressing human A2A receptor, probe [3H]ZM241385.
T3 sequence (P29274 whole entry): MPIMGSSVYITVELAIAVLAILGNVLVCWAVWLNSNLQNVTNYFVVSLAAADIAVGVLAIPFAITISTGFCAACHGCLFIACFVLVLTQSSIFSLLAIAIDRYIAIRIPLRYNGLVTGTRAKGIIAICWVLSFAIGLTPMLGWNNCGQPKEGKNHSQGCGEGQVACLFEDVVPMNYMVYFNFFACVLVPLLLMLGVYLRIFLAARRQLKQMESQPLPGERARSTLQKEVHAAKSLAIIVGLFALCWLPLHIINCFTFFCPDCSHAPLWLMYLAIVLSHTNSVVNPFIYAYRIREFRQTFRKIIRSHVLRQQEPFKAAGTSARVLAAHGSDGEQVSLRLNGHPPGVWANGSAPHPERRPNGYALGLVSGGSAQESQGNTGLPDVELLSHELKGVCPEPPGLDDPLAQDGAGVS
Series [9] concerns the target T3, Adenosine receptor A2a. As to the kind of experiment: Displacement of [3H]ZM241385 from human A2A receptor expressed in HEK293 cell membranes.
Series [10] can be described thus: Displacement of [3H]DPCPX from pig A1 receptor. The arrangement: species or system Sus scrofa.
Series [11] deals with Alpha-2C adrenergic receptor (Homo sapiens, UniProt P18825). As to the kind of experiment: Displacement of [3H]Rauwolscine from human alpha 2C adrenergic receptor expressed in MDCK cells by radioligand binding assay. In kind it is cell-based.
Sequence of Alpha-2C adrenergic receptor (P18825 whole entry): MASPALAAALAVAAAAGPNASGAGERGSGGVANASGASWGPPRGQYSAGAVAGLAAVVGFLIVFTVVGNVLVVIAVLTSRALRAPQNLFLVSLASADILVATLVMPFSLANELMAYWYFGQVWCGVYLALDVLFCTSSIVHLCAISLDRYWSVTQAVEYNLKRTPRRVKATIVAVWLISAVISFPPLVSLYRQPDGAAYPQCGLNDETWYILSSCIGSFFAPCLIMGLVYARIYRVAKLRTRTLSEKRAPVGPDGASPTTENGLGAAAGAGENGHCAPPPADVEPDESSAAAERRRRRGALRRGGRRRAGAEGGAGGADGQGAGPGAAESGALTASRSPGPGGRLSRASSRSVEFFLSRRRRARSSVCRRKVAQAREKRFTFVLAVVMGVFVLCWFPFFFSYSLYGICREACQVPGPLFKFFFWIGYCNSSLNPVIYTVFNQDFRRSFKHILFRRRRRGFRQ
Series [12] concerns the target T2, Adenosine receptor A3. The series can be described thus: Antagonist activity at human A3AR expressed in CHO cells assessed as suppression of NECA-induced reduction in cAMP accumulation. It counts as functional, cell-based. (In general: Changes in cAMP serve as a functional read-out for many G protein-coupled receptors.)
The target in a further series is T4, Adenosine receptor A1 (Homo sapiens, UniProt P30542).
T4 sequence (P30542 whole entry): T1 sequence (whole entry)
The series can be described thus: Displacement of [3H]DPCPX from recombinant human A1 receptor expressed in CHO cell membranes.

The target of series [13] is Sigma non-opioid intracellular receptor 1 (Cavia porcellus, UniProt Q60492). The series can be described thus: Displacement of [3H]-(+)-pentazocine from sigma-1 receptor in guinea pig by radioligand binding assay.
Sequence of Sigma non-opioid intracellular receptor 1 (Q60492 whole entry): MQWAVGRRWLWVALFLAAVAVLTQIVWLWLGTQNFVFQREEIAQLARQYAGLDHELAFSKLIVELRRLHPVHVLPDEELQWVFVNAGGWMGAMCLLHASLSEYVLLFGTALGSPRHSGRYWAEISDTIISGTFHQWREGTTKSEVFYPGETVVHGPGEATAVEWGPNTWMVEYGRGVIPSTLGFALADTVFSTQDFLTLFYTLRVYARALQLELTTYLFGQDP
A further series has as its target D(1A) dopamine receptor (Homo sapiens, UniProt P21728). As to the kind of experiment: Displacement of [3H]SCH23390 from human dopamine D1 receptor expressed in HEK293T cell membranes by radioligand binding assay.

What is called Ki is a dissociation constant, usually derived from enzyme kinetics or from competition with a known ligand. The term inhibition denotes the share of the control response that was lost under treatment. A word on the EC50: it is the concentration giving half of the maximal effect.

Sequence of Sigma intracellular receptor 2 (Q5BJF2 whole entry): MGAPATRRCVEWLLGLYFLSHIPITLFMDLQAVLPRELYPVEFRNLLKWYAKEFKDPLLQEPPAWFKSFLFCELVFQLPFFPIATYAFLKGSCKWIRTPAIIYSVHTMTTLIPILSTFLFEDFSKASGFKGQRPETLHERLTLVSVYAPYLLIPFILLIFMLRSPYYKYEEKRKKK
Sequence of Adenosine receptor A3 (Mus musculus, UniProt Q61618) (Q61618 whole entry): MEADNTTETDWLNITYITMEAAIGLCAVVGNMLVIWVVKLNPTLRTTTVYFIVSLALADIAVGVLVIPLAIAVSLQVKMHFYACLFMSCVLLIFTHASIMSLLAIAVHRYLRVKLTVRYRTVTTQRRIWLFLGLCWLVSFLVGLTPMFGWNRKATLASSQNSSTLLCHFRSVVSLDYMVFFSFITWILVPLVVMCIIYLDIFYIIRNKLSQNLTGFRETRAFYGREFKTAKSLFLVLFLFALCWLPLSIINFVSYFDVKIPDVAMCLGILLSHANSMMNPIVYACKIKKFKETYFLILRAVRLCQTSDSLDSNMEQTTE
Sequence of D(1A) dopamine receptor (P21728 whole entry): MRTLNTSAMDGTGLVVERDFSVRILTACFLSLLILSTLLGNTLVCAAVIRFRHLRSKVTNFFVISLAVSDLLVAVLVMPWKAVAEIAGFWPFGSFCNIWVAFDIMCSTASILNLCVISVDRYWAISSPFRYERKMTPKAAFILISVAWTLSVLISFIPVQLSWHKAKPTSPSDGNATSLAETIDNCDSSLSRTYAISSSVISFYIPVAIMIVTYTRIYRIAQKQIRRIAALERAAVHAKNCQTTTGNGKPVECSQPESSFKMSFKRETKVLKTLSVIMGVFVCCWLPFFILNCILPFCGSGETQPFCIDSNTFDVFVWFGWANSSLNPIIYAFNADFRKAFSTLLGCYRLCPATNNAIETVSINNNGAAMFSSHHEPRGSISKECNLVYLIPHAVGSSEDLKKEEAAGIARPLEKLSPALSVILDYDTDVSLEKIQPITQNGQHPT

For `C[C@@]12C[C@@H]1[C@@H](n1cnc3c(NCCc4ccccc4)nc(C#Cc4ccccc4)nc31)[C@H](O)[C@@H]2O`, the inhibition constant Ki was found to be 480 nM at Adenosine receptor A3 [1], 20 nM at Adenosine receptor A3 [4], 2800 nM in series [6] and 1300 nM in [7]. In addition, the Ratio Ki in the series listed under Homo sapiens was determined as 24. The figures for the inhibition in [2] and in series [3] were 30% and 39%, respectively. Besides, the inhibition at 10 µM was 13% on Adenosine receptor A2a [5] and 22% at Adenosine receptor A2a [8].
Regarding `OC[C@H]1O[C@@H](n2cnc3c(N[C@@H]4CCOC4)ncnc32)[C@H](O)[C@@H]1O` [TECADENOSON], the Ki on Adenosine receptor A2a [9] was 2320 nM; in series [10], 6.5 nM.
`Clc1ccc(C#Cc2nc(NC3CCCC3)c3nc[nH]c3n2)s1`: the Ki in [11] came to 1490 nM; on Adenosine receptor A3 [4], 17.4 nM; at Adenosine receptor A2a [9] it was 1340 nM; at Adenosine receptor A1, 1120 nM. For the same compound, the 50% effective concentration (EC50) at Adenosine receptor A3 [12] stood at 276 nM.
Consider `CCNc1nc(C#Cc2ccc(Cl)s2)nc2[nH]cnc12`, for which, in series [2], the inhibition was determined as 32%. Besides, the inhibitory constant (Ki) at Adenosine receptor A3 [4] was 33.1 nM; in [13], 1160 nM; on D(1A) dopamine receptor, 5110 nM. The compound further returned an inhibition at 10 µM on Adenosine receptor A2a [8] of 18%.

These data come from ChEMBL document CHEMBL4368860, “Structure activity relationship of 2-arylalkynyl-adenine derivatives as human A3 adenosine receptor antagonists” (Medchemcomm, 2018).
